Laboratory results published in PubChem BioAssay AID248 (DTP/NCI, 2004).
Where “and” joins values, the source holds several entries; their conditions need not be identical. Identical values can stand only once. Toxic doses and inconclusive results are not listed.

System: L1210 leukemia ip in BDF1 mice, survival T/C
Assay: NCI In Vivo Anticancer Drug Screen. Data for tumor model L1210 Leukemia (intraperitoneal) in B6D2F1 (BDF1) mice
Settings: higher = longer survival
Procedure, shortened: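 Ratio derived from survival: compound-dosed mice over vehicle-dosed mice, all bearing a transplantable tumor.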

`C[C@H](N)C(=O)N[C@@H]1[C@H]2C(=C(O)C[C@@H](O)[C@@H]2O)C(=O)O[C@@H]1C` was tested, and the T/C (endpoint: mean survival time, dose: 16.0 mg/kg/injection, schedule: Q01DX Z (ip), vehicle: carboxymethylcellulose (CMC)) was 100 % of control, the T/C (endpoint: mean survival time, dose: 31.0 mg/kg/injection, schedule: Q01DX Z (ip), vehicle: carboxymethylcellulose (CMC)) was 97 % of control and the T/C (endpoint: mean survival time, dose: 37.5 mg/kg/injection, schedule: Q01DX010 (ip), vehicle: saline) was 102 % of control and 104 % of control. The T/C (endpoint: mean survival time, dose: 50.0 mg/kg/injection, schedule: Q01DX001 (ip), vehicle: saline) was 105 % of control, the T/C (endpoint: mean survival time, dose: 50.0 mg/kg/injection, schedule: Q#A X Z (ip), vehicle: saline) was 120 % of control and the T/C (endpoint: mean survival time, dose: 62.0 mg/kg/injection, schedule: Q01DX Z (ip), vehicle: carboxymethylcellulose (CMC)) was 112 % of control. For the same molecule, the T/C (endpoint: mean survival time, dose: 75.0 mg/kg/injection, schedule: Q01DX010 (ip), vehicle: saline) was 104 % of control, the T/C (endpoint: mean survival time, dose: 88.0 mg/kg/injection, schedule: Q01DX015 (ip), vehicle: saline) was 118 % of control and the T/C (endpoint: mean survival time, dose: 100.0 mg/kg/injection, schedule: Q01DX001 (ip), vehicle: saline) was 104 % of control. The T/C (endpoint: mean survival time, dose: 100.0 mg/kg/injection, schedule: Q01DX006 (iv), vehicle: saline) was 101 % of control, the T/C (endpoint: mean survival time, dose: 100.0 mg/kg/injection, schedule: Q01DX Z (im), vehicle: saline) was 98 % of control and the T/C (endpoint: mean survival time, dose: 100.0 mg/kg/injection, schedule: Q01DX Z (sc), vehicle: saline) was 102 % of control. The T/C (endpoint: mean survival time, dose: 125.0 mg/kg/injection, schedule: Q01DX Z (ip), vehicle: carboxymethylcellulose (CMC)) was 124 % of control, the T/C (endpoint: mean survival time, dose: 125.0 mg/kg/injection, schedule: Q01DX Z (ip), vehicle: saline) was 116 % of control and the T/C (endpoint: mean survival time, dose: 130.0 mg/kg/injection, schedule: Q01DX015 (ip), vehicle: saline) was 114 % of control. The T/C (endpoint: mean survival time, dose: 150.0 mg/kg/injection, schedule: Q01DX005 (ip), vehicle: saline) was 104 % of control, the T/C (endpoint: mean survival time, dose: 150.0 mg/kg/injection, schedule: Q03HX016 (ip), vehicle: saline) was 103 % of control and the T/C (endpoint: mean survival time, dose: 150.0 mg/kg/injection, schedule: Q08DX002 (ip), vehicle: saline) was 116 % of control. The T/C (endpoint: mean survival time, dose: 200.0 mg/kg/injection, schedule: Q01DX001 (ip), vehicle: saline) was 110 % of control, the T/C (endpoint: mean survival time, dose: 200.0 mg/kg/injection, schedule: Q01DX006 (iv), vehicle: saline) was 104 % of control and the T/C (endpoint: mean survival time, dose: 200.0 mg/kg/injection, schedule: Q01DX015 (ip), vehicle: saline) was 120 % of control. The T/C (endpoint: mean survival time, dose: 200.0 mg/kg/injection, schedule: Q01DX Z (im), vehicle: saline) was 110 % of control, the T/C (endpoint: mean survival time, dose: 200.0 mg/kg/injection, schedule: Q01DX Z (sc), vehicle: saline) was 116 % of control and the T/C (endpoint: mean survival time, dose: 268.0 mg/kg/injection, schedule: Q## X004 (ip), vehicle: saline) was 108 % of control. For the same molecule, the T/C (endpoint: mean survival time, dose: 300.0 mg/kg/injection, schedule: Q01DX001 (sc), vehicle: saline) was 96 % of control, the T/C (endpoint: mean survival time, dose: 300.0 mg/kg/injection, schedule: Q01DX005 (ip), vehicle: saline) was 116 % of control and the T/C (endpoint: mean survival time, dose: 300.0 mg/kg/injection, schedule: Q01DX009 (sc), vehicle: saline) was 113 % of control. For the same molecule, the T/C (endpoint: mean survival time, dose: 300.0 mg/kg/injection, schedule: Q01DX Z (ip), vehicle: saline) was 160 % of control, the T/C (endpoint: mean survival time, dose: 300.0 mg/kg/injection, schedule: Q03HX016 (ip), vehicle: saline) was 110 % of control and the T/C (endpoint: mean survival time, dose: 300.0 mg/kg/injection, schedule: Q03HX024 (ip), vehicle: saline) was 109 % of control. For the same molecule, the T/C (endpoint: mean survival time, dose: 300.0 mg/kg/injection, schedule: Q04DX003 (ip), vehicle: saline) was 119 % of control, the T/C (endpoint: mean survival time, dose: 300.0 mg/kg/injection, schedule: Q08DX002 (ip), vehicle: saline) was 111 % of control and the T/C (endpoint: mean survival time, dose: 320.0 mg/kg/injection, schedule: Q01DX015 (ip), vehicle: saline) was 156 % of control and 174 % of control. For the same molecule, the T/C (endpoint: mean survival time, dose: 333.0 mg/kg/injection, schedule: Q02DX004 (ip), vehicle: saline) was 116 % of control, the T/C (endpoint: mean survival time, dose: 352.0 mg/kg/injection, schedule: Q## X032 (ip), vehicle: saline) was 116 % of control and the T/C (endpoint: mean survival time, dose: 400.0 mg/kg/injection, schedule: Q01DX001 (ip), vehicle: saline) was 105 % of control. For the same molecule, the T/C (endpoint: mean survival time, dose: 400.0 mg/kg/injection, schedule: Q01DX006 (iv), vehicle: saline) was 113 % of control, the T/C (endpoint: mean survival time, dose: 400.0 mg/kg/injection, schedule: Q01DX013 (ip), vehicle: saline) was 178 % of control and the T/C (endpoint: mean survival time, dose: 400.0 mg/kg/injection, schedule: Q01DX Z (ip), vehicle: saline) was 151 % of control. The T/C (endpoint: mean survival time, dose: 400.0 mg/kg/injection, schedule: Q01DX Z (oral), vehicle: saline) was 104 % of control, the T/C (endpoint: mean survival time, dose: 400.0 mg/kg/injection, schedule: Q## X004 (ip), vehicle: saline) was 113 % of control and the T/C (endpoint: mean survival time, dose: 450.0 mg/kg/injection, schedule: Q01DX015 (ip), vehicle: saline) was 155 % of control. For the same molecule, the T/C (endpoint: mean survival time, dose: 536.0 mg/kg/injection, schedule: Q## X032 (ip), vehicle: saline) was 119 % of control and 120 % of control, the T/C (endpoint: mean survival time, dose: 600.0 mg/kg/injection, schedule: Q01DX001 (sc), vehicle: saline) was 105 % of control and the T/C (endpoint: mean survival time, dose: 600.0 mg/kg/injection, schedule: Q01DX005 (ip), vehicle: saline) was 118 % of control. For the same molecule, the T/C (endpoint: mean survival time, dose: 600.0 mg/kg/injection, schedule: Q01DX009 (sc), vehicle: saline) was 119 % of control, the T/C (endpoint: mean survival time, dose: 600.0 mg/kg/injection, schedule: Q03HX016 (ip), vehicle: saline) was 110 % of control and the T/C (endpoint: mean survival time, dose: 600.0 mg/kg/injection, schedule: Q03HX024 (ip), vehicle: saline) was 115 % of control. For the same molecule, the T/C (endpoint: mean survival time, dose: 600.0 mg/kg/injection, schedule: Q04DX003 (ip), vehicle: saline) was 119 % of control, the T/C (endpoint: mean survival time, dose: 600.0 mg/kg/injection, schedule: Q08DX002 (ip), vehicle: saline) was 113 % of control and the T/C (endpoint: mean survival time, dose: 600.0 mg/kg/injection, schedule: Q## X004 (ip), vehicle: saline) was 111 % of control. For the same molecule, the T/C (endpoint: mean survival time, dose: 656.0 mg/kg/injection, schedule: Q01DX015 (ip), vehicle: carboxymethylcellulose (CMC)) was 162 % of control, the T/C (endpoint: mean survival time, dose: 700.0 mg/kg/injection, schedule: Q01DX001 (ip), vehicle: saline) was 110 % of control and 117 % of control and the T/C (endpoint: mean survival time, dose: 700.0 mg/kg/injection, schedule: Q07DX Z (ip), vehicle: saline) was 114 % of control. For the same molecule, the T/C (endpoint: mean survival time, dose: 800.0 mg/kg/injection, schedule: Q01DX Z (im), vehicle: saline) was 176 % of control, the T/C (endpoint: mean survival time, dose: 800.0 mg/kg/injection, schedule: Q01DX Z (oral), vehicle: saline) was 108 % of control and the T/C (endpoint: mean survival time, dose: 800.0 mg/kg/injection, schedule: Q01DX Z (sc), vehicle: saline) was 174 % of control. For the same molecule, the T/C (endpoint: mean survival time, dose: 800.0 mg/kg/injection, schedule: Q## X032 (ip), vehicle: saline) was 117 % of control, the T/C (endpoint: mean survival time, dose: 900.0 mg/kg/injection, schedule: Q## X004 (ip), vehicle: saline) was 122 % of control and the T/C (endpoint: mean survival time, dose: 1084.0 mg/kg/injection, schedule: Q01DX001 (ip), vehicle: saline) was 94 % of control and 95 % of control. For the same molecule, the T/C (endpoint: mean survival time, dose: 1200.0 mg/kg/injection, schedule: Q01DX001 (sc), vehicle: saline) was 101 % of control, the T/C (endpoint: mean survival time, dose: 1200.0 mg/kg/injection, schedule: Q03HX016 (ip), vehicle: saline) was 111 % of control and the T/C (endpoint: mean survival time, dose: 1200.0 mg/kg/injection, schedule: Q## X032 (ip), vehicle: saline) was 120 % of control and 121 % of control. The T/C (endpoint: mean survival time, dose: 1300.0 mg/kg/injection, schedule: Q01DX001 (ip), vehicle: saline) was 106 % of control, the T/C (endpoint: mean survival time, dose: 1350.0 mg/kg/injection, schedule: Q## X004 (ip), vehicle: saline) was 122 % of control and the T/C (endpoint: mean survival time, dose: 1400.0 mg/kg/injection, schedule: Q01DX001 (ip), vehicle: saline) was 106 % of control and 119 % of control. The T/C (endpoint: mean survival time, dose: 1400.0 mg/kg/injection, schedule: Q07DX Z (ip), vehicle: saline) was 120 % of control, the T/C (endpoint: mean survival time, dose: 1491.0 mg/kg/injection, schedule: Q01DX015 (ip), vehicle: carboxymethylcellulose (CMC)) was 155 % of control and the T/C (endpoint: mean survival time, dose: 1600.0 mg/kg/injection, schedule: Q01DX Z (im), vehicle: saline) was 160 % of control. The T/C (endpoint: mean survival time, dose: 1600.0 mg/kg/injection, schedule: Q01DX Z (oral), vehicle: saline) was 106 % of control, the T/C (endpoint: mean survival time, dose: 1650.0 mg/kg/injection, schedule: Q01DX001 (ip), vehicle: saline) was 96 % of control and 97 % of control and the T/C (endpoint: mean survival time, dose: 1687.0 mg/kg/injection, schedule: Q02DX004 (ip), vehicle: saline) was 166 % of control. For the same molecule, the T/C (endpoint: mean survival time, dose: 2000.0 mg/kg/injection, schedule: Q01DX001 (ip), vehicle: saline) was 120 % of control, the T/C (endpoint: mean survival time, dose: 2024.0 mg/kg/injection, schedule: Q01DX001 (ip), vehicle: saline) was 115 % of control and the T/C (endpoint: mean survival time, dose: 2237.0 mg/kg/injection, schedule: Q01DX015 (ip), vehicle: carboxymethylcellulose (CMC)) was 108 % of control. For the same molecule, the T/C (endpoint: mean survival time, dose: 2400.0 mg/kg/injection, schedule: Q01DX001 (sc), vehicle: saline) was 104 % of control, the T/C (endpoint: mean survival time, dose: 2400.0 mg/kg/injection, schedule: Q03HX016 (ip), vehicle: saline) was 119 % of control and the T/C (endpoint: mean survival time, dose: 2400.0 mg/kg/injection, schedule: Q08DX002 (ip), vehicle: saline) was 122 % of control. For the same molecule, the T/C (endpoint: mean survival time, dose: 2464.0 mg/kg/injection, schedule: Q01DX001 (ip), vehicle: saline) was 100 % of control, the T/C (endpoint: mean survival time, dose: 2800.0 mg/kg/injection, schedule: Q01DX001 (ip), vehicle: saline) was 123 % of control and the T/C (endpoint: mean survival time, dose: 2800.0 mg/kg/injection, schedule: Q07DX Z (ip), vehicle: saline) was 119 % of control. The T/C (endpoint: mean survival time, dose: 3000.0 mg/kg/injection, schedule: Q01DX001 (ip), vehicle: saline) was 115 % of control, the T/C (endpoint: mean survival time, dose: 3200.0 mg/kg/injection, schedule: Q01DX Z (oral), vehicle: saline) was 108 % of control and the T/C (endpoint: median survival time, dose: 75.0 mg/kg/injection, schedule: Q01DX009 (ip), vehicle: saline) was 113 % of control. For the same molecule, the T/C (endpoint: median survival time, dose: 133.0 mg/kg/injection, schedule: Q04DX003 (ip), vehicle: saline) was 97 % of control, the T/C (endpoint: median survival time, dose: 266.0 mg/kg/injection, schedule: Q04DX003 (ip), vehicle: saline) was 101 % of control and the T/C (endpoint: median survival time, dose: 532.0 mg/kg/injection, schedule: Q04DX003 (ip), vehicle: saline) was 110 % of control. The T/C (endpoint: median survival time, dose: 600.0 mg/kg/injection, schedule: Q01DX009 (ip), vehicle: saline) was 160 % of control and the T/C (endpoint: median survival time, dose: 1200.0 mg/kg/injection, schedule: Q01DX009 (ip), vehicle: saline) was 180 % of control.
